Results on two molecules are retold here after patent US20100273652A1 (priority 2009, published 2010).

Holding throughout (type): cell-based
In assay [1] the test system is fumonisin FB1 production of Fusarium proliferatum. The experiment in a line: Inhibition of fumonisin FB1 production of Fusarium proliferatum. The conditions noted are these: 5 days, 20° C., vs control without compound.
The next assay deals with Fusarium proliferatum. The experiment in a line: Growth inhibition of Fusarium proliferatum (OD620). The conditions noted are these: OD620 at start and after 5 days.
Assay [2] relates to DON/Acetyl-DON production of Fusarium graminearum.
In the next assay the test system is Fusarium graminearum.

Broadly, the % inhibition is how much of the control response was suppressed. Read a low % inhibition as a weak effect. For `Nc1cc(-c2[nH]c3cccnc3c2-c2ccc(F)cc2)ccn1` [Example 4], in assay [1], the “% inhibition at 50 μM FB1” value is 45%. The “% inhibition at 50 μM Fusarium proliferatum (growth)” value in the assay with Fusarium proliferatum is 31%.
On to `C=C=Cn1c(-c2ccncc2)c(-c2ccc(F)cc2)c2ncccc21` [Example 15], for which the “% inhibition at 50 μM DON/AcDON” value in assay [2] came to 44%. The “% inhibition at 50 μM Fusarium graminearum (growth)” value in the assay on Fusarium graminearum stood at 33%. Also, the “% inhibition at 50 μM Fusarium proliferatum (growth)” value with Fusarium proliferatum was 37%.
